Converted amounts (≈) assume the structure as drawn.

Data set [1] can be described thus: Tmax in mouse at 6 mg/kg, po. The format is ADME, organism-based. The settings on record: in vivo.
Data set [2] can be described thus: Protein binding in mouse plasma. It counts as ADME, cell-free. Conditions: read-out: PPB (converted).
Data set [3] is described as follows: Tmax in rat at 5 mg/kg, po. It counts as ADME, organism-based. Conditions: in vivo.
For data set [4], the target named is Tyrosine-protein kinase BTK (Homo sapiens, UniProt Q06187). Kind of data set: Inhibition of BTK in human peripheral B cells assessed as suppression of BCR/anti-IgM/IgG-stimulated CD86 surface expression. The format is cell-based.
The next data set deals with T1, Cytochrome P450 2B6 (Homo sapiens, UniProt P20813).
T1 sequence (P20813 whole entry): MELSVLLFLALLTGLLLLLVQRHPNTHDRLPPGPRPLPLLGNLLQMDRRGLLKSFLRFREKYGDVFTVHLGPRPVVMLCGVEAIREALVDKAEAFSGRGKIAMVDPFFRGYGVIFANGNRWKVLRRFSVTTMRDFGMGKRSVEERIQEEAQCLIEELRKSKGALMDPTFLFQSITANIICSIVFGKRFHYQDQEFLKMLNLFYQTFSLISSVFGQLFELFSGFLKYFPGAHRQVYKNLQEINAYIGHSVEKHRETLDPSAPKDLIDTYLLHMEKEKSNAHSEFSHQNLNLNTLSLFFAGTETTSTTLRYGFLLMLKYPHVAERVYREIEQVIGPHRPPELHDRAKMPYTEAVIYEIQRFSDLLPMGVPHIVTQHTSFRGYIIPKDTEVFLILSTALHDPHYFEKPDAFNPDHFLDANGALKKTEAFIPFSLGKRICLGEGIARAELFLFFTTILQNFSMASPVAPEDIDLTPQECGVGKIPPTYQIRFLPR
Kind of data set: Inhibition of CYP2B6 (unknown origin). The format is ADME.

Data set [5] in a line: Tmax in dog at 2 mg/kg, po. The format is ADME, organism-based, Canis lupus familiaris. The settings on record: in vivo.
Data set [6] is described as follows: Protein binding in rat plasma. The format is ADME, cell-free. The settings on record: read-out: PPB (converted).
Data set [7] is described as follows: Permeability of the compound at pH 5.5 by PAMPA assay. The settings on record: read-out: permeability. The format is ADME.
A further data set has as its target T2, Cytochrome P450 1A2 (Homo sapiens, UniProt P05177).
T2 sequence (P05177 whole entry): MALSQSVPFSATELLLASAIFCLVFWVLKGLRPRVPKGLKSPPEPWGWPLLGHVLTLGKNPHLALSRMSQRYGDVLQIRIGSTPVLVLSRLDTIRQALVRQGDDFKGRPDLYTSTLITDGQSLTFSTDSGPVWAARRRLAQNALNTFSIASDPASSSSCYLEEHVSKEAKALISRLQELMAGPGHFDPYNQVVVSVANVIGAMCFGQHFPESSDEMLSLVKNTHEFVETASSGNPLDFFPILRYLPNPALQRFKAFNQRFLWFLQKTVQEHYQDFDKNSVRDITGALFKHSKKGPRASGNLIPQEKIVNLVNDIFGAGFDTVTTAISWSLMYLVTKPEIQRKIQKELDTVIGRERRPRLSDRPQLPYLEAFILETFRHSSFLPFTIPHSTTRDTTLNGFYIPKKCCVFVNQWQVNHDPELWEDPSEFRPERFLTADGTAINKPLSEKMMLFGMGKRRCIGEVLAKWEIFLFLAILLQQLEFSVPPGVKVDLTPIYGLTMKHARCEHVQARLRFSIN
Kind of data set: Inhibition of CYP1A2 (unknown origin). It counts as ADME.

Data set [8] can be described thus: Oral bioavailability in rat at 5 mg/kg. Conditions: in vivo. The format is ADME, organism-based.
Data set [9] in a line: Half life in rat at 2 mg/kg, iv. The format is ADME, organism-based. Conditions: in vivo.
A short description of data set [10]: AUC in cynomolgus monkey at 4 mg/kg, po. It counts as ADME, organism-based, Macaca fascicularis. The settings on record: in vivo.
In the next data set the target is T3, Cytochrome P450 2C8 (Homo sapiens, UniProt P10632).
T3 sequence (P10632 whole entry): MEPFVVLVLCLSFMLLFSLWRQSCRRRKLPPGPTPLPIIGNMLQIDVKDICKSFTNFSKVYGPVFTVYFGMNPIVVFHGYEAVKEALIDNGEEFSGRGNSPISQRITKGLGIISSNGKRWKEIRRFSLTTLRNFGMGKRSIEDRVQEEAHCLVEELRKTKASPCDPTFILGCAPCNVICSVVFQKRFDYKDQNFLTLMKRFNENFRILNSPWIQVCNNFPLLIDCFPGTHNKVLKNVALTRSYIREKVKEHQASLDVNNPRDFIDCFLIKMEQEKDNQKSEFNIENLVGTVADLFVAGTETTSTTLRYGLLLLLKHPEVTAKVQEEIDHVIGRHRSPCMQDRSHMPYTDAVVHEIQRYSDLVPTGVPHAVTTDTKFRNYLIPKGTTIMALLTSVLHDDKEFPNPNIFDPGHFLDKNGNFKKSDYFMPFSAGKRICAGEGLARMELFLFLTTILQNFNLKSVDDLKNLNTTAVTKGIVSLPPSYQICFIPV
Kind of data set: Inhibition of CYP2C8 (unknown origin). The format is ADME.

Data set [11] in a line: Cmax in dog at 2 mg/kg, po. It counts as ADME, organism-based, Canis lupus familiaris. Set-up: dose 2 mg/kg, route oral. Conditions: in vivo.
Data set [12] can be described thus: Drug metabolism in po dosed rat plasma assessed as isomerization of atropisomeric center after 24 hrs. It counts as ADME, organism-based. Conditions: read-out: Drug metabolism.
The nature of data set [13]: Drug uptake in rat brain relative to plasma concentration. It counts as ADME.
A short description of data set [14]: MRT in rat at 2 mg/kg, iv. The format is ADME, organism-based. The settings on record: in vivo.
A short description of data set [15]: Clearance in mouse at 3 mg/kg, iv. Conditions: in vivo. It counts as ADME, organism-based.
Data set [16] in a line: Solubility of the compound in fed state stimulated intestinal fluid. It counts as ADME. The settings on record: fed state simulated intestinal fluid (FeSSIF).
In a further data set the test system is Mus musculus. Kind of data set: Antiathritis activity in anticollagen antibody-induced arthritis BALB/c mouse model assessed as reduction in LPS-induced paw swelling at 5 mg/kg, po qd followed by LPS addition on day 3 measured after 11 days relative to control. It counts as functional. Set-up: scale not given: the % may be the effect or the level left.
Data set [17] in a line: Volume of distribution at steady state in mouse at 3 mg/kg, iv. It counts as ADME, organism-based. The settings on record: in vivo, read-out: Vdss.
The nature of data set [18]: Mutagenicity in Salmonella typhimurium by Ames test. It counts as toxicity. Conditions: salmonella enterica subsp. enterica serovar typhimurium. (In the Ames test, an excess of revertant colonies over the control signals mutagenicity.)

Tyrosine-protein kinase BTK, sequence (Q06187 whole entry): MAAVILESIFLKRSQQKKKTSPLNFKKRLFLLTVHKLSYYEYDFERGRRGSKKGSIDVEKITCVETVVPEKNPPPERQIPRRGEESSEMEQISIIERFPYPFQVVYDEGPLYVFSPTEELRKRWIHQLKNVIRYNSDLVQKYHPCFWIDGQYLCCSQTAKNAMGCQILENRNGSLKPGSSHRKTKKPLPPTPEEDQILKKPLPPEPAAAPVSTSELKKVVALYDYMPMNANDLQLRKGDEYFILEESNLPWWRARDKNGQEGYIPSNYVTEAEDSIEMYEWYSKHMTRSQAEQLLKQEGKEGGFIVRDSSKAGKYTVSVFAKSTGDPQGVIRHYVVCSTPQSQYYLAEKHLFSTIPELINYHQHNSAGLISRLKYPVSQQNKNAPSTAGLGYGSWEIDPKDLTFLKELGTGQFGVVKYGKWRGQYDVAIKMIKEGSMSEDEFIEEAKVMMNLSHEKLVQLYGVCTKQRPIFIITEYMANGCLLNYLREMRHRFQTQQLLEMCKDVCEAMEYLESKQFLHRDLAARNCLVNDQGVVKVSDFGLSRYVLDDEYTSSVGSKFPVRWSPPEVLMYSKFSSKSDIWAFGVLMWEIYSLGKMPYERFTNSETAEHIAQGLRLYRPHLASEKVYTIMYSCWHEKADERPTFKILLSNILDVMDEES

As usually defined, the Tmax is the time from dosing to the highest level. For orientation: IC50 means the concentration at which inhibition is half-maximal. For orientation: bioavailability means dose-corrected exposure relative to a reference, in per cent. As a reminder, the half-life is how long it takes for the measured level to halve. A word on the AUC: it is concentration integrated over time. The term Cmax denotes the peak of the concentration-time curve. By MRT is commonly meant the average time that molecules of a dose stay in the body. As a reminder, the clearance is the volume of plasma or blood freed of the substance per unit of time. In general, solubility refers to the concentration that dissolves in the medium under given conditions. `Cc1c(-c2c(F)cc(C(N)=O)c3[nH]c4c(c23)CC[C@H](C(C)(C)O)C4)cccc1-n1c(=O)c2cccc(F)c2n(C)c1=O` (atropisomer R) [BMS-986142]: the Tmax in data set [1] came out at 1 h; in data set [3], 3 h; in data set [5] it was 3 h. The figures for the fraction unbound in data set [2] and in data set [6] were 0.015 and 0.017, respectively. Further, the IC50 is 4 nM in [4], above 40000 nM at Cytochrome P450 2B6, above 40000 nM against Cytochrome P450 1A2 and 2600 nM against Cytochrome P450 2C8. Besides, the Papp in data set [7] came to 67.3 ×10⁻⁶ cm/s. The molecule further yielded a bioavailability in [8] of 67%. The same molecule gave a half-life in data set [9] of 3.6 h. Moreover, in data set [10], the AUC came to 5 µM·h. In addition, the concentration in [11] peaked (Cmax) at 1200 nM. For the same molecule, the metabolised at 24 h in data set [12] was below 2%. For the same molecule, in [13], the Drug uptake is below 5%. The MRT in data set [14] was determined as 5.1 h. Further, the clearance in [15] was found to be 4.1 mL/min/kg. This molecule had a solubility in [16] of 368 µg/mL (≈ 643 µM). Besides, the Activity was 72% in the data set on Mus musculus and “Non-Toxic” in data set [18]. In addition, the Vd in data set [17] came to 1.2 L/kg.

(Values after ChEMBL document CHEMBL3856250, “Discovery of 6-Fluoro-5-(R)-(3-(S)-(8-fluoro-1-methyl-2,4-dioxo-1,2-dihydroquinazolin-3(4H)-yl)-2-methylphenyl)-2-(S)-(2-hydroxypropan-2-yl)-2,3,4,9-tetrahydro-1H-carbazole-8-carboxamide (BMS-986142): A Reversible Inhibitor of Bruton's Tyrosine Kinase (BTK) Conformationally Constrained by Two …” (J Med Chem, 2016).)
